PubChem BioAssay (NCI)
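Five compound concentrations were applied to cells in 96-well plates for 48 hours; endpoints were derived by simple linear interpolation of the resulting dose-response curve. TGI marks complete inhibition of growth.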

Tests used:
Assay in all cases: DTP human tumour cell line panel, 48 h
OVCAR-4 ovarian = tested on: OVCAR-4 ovarian
HT29 colon = tested on: HT29 colon
NCI-H522 lung = tested on: NCI-H522 lung
M14 melanoma = tested on: M14 melanoma
MALME-3M melanoma = tested on: MALME-3M melanoma
A549 NSCLC = tested on: A549 NSCLC
LOX IMVI melanoma = tested on: LOX IMVI melanoma
HL-60(TB) leukemia = tested on: HL-60(TB) leukemia
COLO 205 colon = tested on: COLO 205 colon
DLD-1 colon = tested on: DLD-1 colon
MOLT-4 leukemia = tested on: MOLT-4 leukemia
RPMI-8226 leukemia = tested on: RPMI-8226 leukemia
NCI-H226 lung = tested on: NCI-H226 lung
UO-31 renal = tested on: UO-31 renal
HOP-92 NSCLC = tested on: HOP-92 NSCLC
RXF 393 renal = tested on: RXF 393 renal
KM12 colon = tested on: KM12 colon
NCI-H23 lung = tested on: NCI-H23 lung
SNB-78 CNS = tested on: SNB-78 CNS
786-0 renal = tested on: 786-0 renal
XF 498 CNS = tested on: XF 498 CNS
CAKI-1 renal = tested on: CAKI-1 renal
DMS 114 small cell lung = tested on: DMS 114 small cell lung
ACHN renal = tested on: ACHN renal
SN12C renal = tested on: SN12C renal
SW-620 colon = tested on: SW-620 colon
HCT-15 colon = tested on: HCT-15 colon
U251 CNS = tested on: U251 CNS
DMS 273 small cell lung = tested on: DMS 273 small cell lung
CCRF-CEM leukemia = tested on: CCRF-CEM leukemia
HCT-116 colon = tested on: HCT-116 colon
NCI-H460 lung = tested on: NCI-H460 lung
SNB-75 CNS = tested on: SNB-75 CNS
OVCAR-5 ovarian = tested on: OVCAR-5 ovarian
SF-539 CNS = tested on: SF-539 CNS
OVCAR-3 ovarian = tested on: OVCAR-3 ovarian
OVCAR-8 ovarian = tested on: OVCAR-8 ovarian
UACC-257 melanoma = tested on: UACC-257 melanoma
HOP-62 NSCLC = tested on: HOP-62 NSCLC
SK-MEL-28 melanoma = tested on: SK-MEL-28 melanoma
SK-MEL-2 melanoma = tested on: SK-MEL-2 melanoma
UACC-62 melanoma = tested on: UACC-62 melanoma
HCC-2998 colon = tested on: HCC-2998 colon
KM20L2 colon = tested on: KM20L2 colon
SK-MEL-5 melanoma = tested on: SK-MEL-5 melanoma
K-562 leukemia = tested on: K-562 leukemia
SF-268 CNS = tested on: SF-268 CNS
SNB-19 CNS = tested on: SNB-19 CNS
SF-295 CNS = tested on: SF-295 CNS
RXF-631 renal = tested on: RXF-631 renal
M19-MEL melanoma = tested on: M19-MEL melanoma
TK-10 renal = tested on: TK-10 renal
SK-OV-3 ovarian = tested on: SK-OV-3 ovarian
SR leukemia = tested on: SR leukemia
HOP-18 NSCLC = tested on: HOP-18 NSCLC
EKVX NSCLC = tested on: EKVX NSCLC
IGROV1 ovarian = tested on: IGROV1 ovarian

`CCCCOP1(=O)C=C(C)C(=C(Cl)Cl)C(C)=C1` (configuration not stated) gave a TGI (OVCAR-4 ovarian) greater than 91.1 µM, a TGI (HT29 colon) of 29.9 µM and a TGI (NCI-H522 lung) of 11 µM. The TGI (M14 melanoma) was 54.8 µM, the TGI (MALME-3M melanoma) was 31.6 µM and the TGI (A549 NSCLC) was greater than 41.5 µM. The TGI (LOX IMVI melanoma) was 33.1 µM, the TGI (HL-60(TB) leukemia) was 8.26 µM and the TGI (COLO 205 colon) was 8.97 µM. The TGI (DLD-1 colon) was 38.9 µM, the TGI (MOLT-4 leukemia) was greater than 48.2 µM and the TGI (RPMI-8226 leukemia) was greater than 24.4 µM. The TGI (NCI-H226 lung) was 13 µM, the TGI (UO-31 renal) was 45.3 µM and the TGI (HOP-92 NSCLC) was 4.88 µM. For the same compound, the TGI (RXF 393 renal) was 24.4 µM, the TGI (KM12 colon) was 4.45 µM and the TGI (NCI-H23 lung) was 34.7 µM. For the same compound, the TGI (SNB-78 CNS) was 6.04 µM, the TGI (786-0 renal) was 53 µM and the TGI (XF 498 CNS) was 46.2 µM. For the same compound, the TGI (CAKI-1 renal) was 27.8 µM, the TGI (DMS 114 small cell lung) was 10.8 µM and the TGI (ACHN renal) was 23.6 µM. The TGI (SN12C renal) was 34.8 µM, the TGI (SW-620 colon) was greater than 40 µM and the TGI (HCT-15 colon) was 40.8 µM. The TGI (U251 CNS) was 22.4 µM, the TGI (DMS 273 small cell lung) was 16.6 µM and the TGI (CCRF-CEM leukemia) was greater than 41.4 µM. The TGI (HCT-116 colon) was 6.29 µM, the TGI (NCI-H460 lung) was 36 µM and the TGI (SNB-75 CNS) was greater than 94.4 µM. The TGI (OVCAR-5 ovarian) was greater than 100 µM, the TGI (SF-539 CNS) was 83.3 µM and the TGI (OVCAR-3 ovarian) was 39.1 µM. The TGI (OVCAR-8 ovarian) was greater than 54.2 µM, the TGI (UACC-257 melanoma) was 11.5 µM and the TGI (HOP-62 NSCLC) was 32.7 µM. The TGI (SK-MEL-28 melanoma) was 23.9 µM, the TGI (SK-MEL-2 melanoma) was 5.11 µM and the TGI (UACC-62 melanoma) was 21.8 µM. For the same compound, the TGI (HCC-2998 colon) was 52.3 µM, the TGI (KM20L2 colon) was 5.13 µM and the TGI (SK-MEL-5 melanoma) was greater than 32.9 µM. The TGI (K-562 leukemia) was greater than 100 µM, the TGI (SF-268 CNS) was 27.3 µM and the TGI (SNB-19 CNS) was greater than 77.9 µM. The TGI (SF-295 CNS) was 25.9 µM, the TGI (RXF-631 renal) was 33.9 µM and the TGI (M19-MEL melanoma) was 32.9 µM. The TGI (TK-10 renal) was 44.1 µM, the TGI (SK-OV-3 ovarian) was 49.8 µM and the TGI (SR leukemia) was 29.9 µM. For the same compound, the TGI (HOP-18 NSCLC) was 82.2 µM, the TGI (EKVX NSCLC) was greater than 100 µM and the TGI (IGROV1 ovarian) was 49 µM.
